# Measured values: PubChem BioAssay (NCI)
#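 Results reflect a 48-hour exposure of cells in 96-well plates to compound at five concentrations. GI50: concentration for 50% inhibition of growth. TGI denotes the concentration required for complete inhibition of growth.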
# Columns and labels:
# Assay in all cases: NCI tumour cell line growth inhibition, 48 h
# MDA-N = tested on: MDA-N
# HOP-18 NSCLC = tested on: HOP-18 NSCLC
# M19-MEL melanoma = tested on: M19-MEL melanoma
# DMS 114 small cell lung = tested on: DMS 114 small cell lung
# DLD-1 colon = tested on: DLD-1 colon
# DMS 273 small cell lung = tested on: DMS 273 small cell lung
# SNB-78 CNS = tested on: SNB-78 CNS
# KM20L2 colon = tested on: KM20L2 colon
# RXF-631 renal = tested on: RXF-631 renal
# P388 leukemia = tested on: P388 leukemia
# SN12K1 renal = tested on: SN12K1 renal
# P388/ADR leukemia = tested on: P388/ADR leukemia
Compound,TGI (HOP-18 NSCLC),TGI (M19-MEL melanoma),TGI (DMS 114 small cell lung),TGI (DLD-1 colon),TGI (DMS 273 small cell lung),TGI (SNB-78 CNS),TGI (KM20L2 colon),other results
CCc1c2c(nc3cc4c(cc13)OCO4)-c1cc3c(c(=O)n1C2)COC(=O)[C@]3(O)CC,–,–,–,–,–,–,–,TGI (MDA-N): > 100 µM
O=c1cc(-c2cccc(F)c2)[nH]c2cc3c(cc12)OCO3,75 µM,75 µM,2.24 µM,8.93 µM,75 µM,75 µM,–,TGI (MDA-N): 0.0407 µM
O=c1[nH]c2ccccc2cc1C(Cl)=C(Cl)Cl,> 100 µM,> 100 µM,> 100 µM,> 100 µM,> 100 µM,> 100 µM,> 100 µM,–
Cc1nn(-c2ccc(S(=O)(=O)[O-])cc2)c([O-])c1N=[N+](C)c1ccc(-c2ccc(N=Nc3ccc4c(S(=O)(=O)[O-])cc(S(=O)(=O)[O-])c(N)c4c3[O-])c([O-])c2)cc1[O-].[Cu+2].[Cu+2].[Na+],–,–,–,–,–,–,–,GI50 (MDA-N): > 100 µM; TGI (MDA-N): > 100 µM
CCOC(=O)CC1=Nc2ccccc2SC1,> 100 µM,> 100 µM,> 100 µM,> 100 µM,> 100 µM,> 100 µM,> 100 µM,TGI (RXF-631 renal): > 100 µM
COc1cc2c(c3c1C=CCO3)C(=O)c1ccccc1C2=O,> 100 µM,> 100 µM,> 100 µM,71.1 µM,> 100 µM,> 100 µM,> 100 µM,–
CSc1nc(SC)c2c(CN=[N+]=[N-])c(Br)n(Cc3ccccc3)c2n1,–,–,–,–,–,–,–,TGI (MDA-N): > 100 µM
C=CCSC[C@H](NC(=O)COc1ccccc1)C(=O)NC(C(=O)OCc1ccc([N+](=O)[O-])cc1)=C(C)C,> 100 µM,> 100 µM,> 100 µM,> 100 µM,> 100 µM,> 100 µM,> 100 µM,TGI (RXF-631 renal): > 100 µM
C=CC1=CSNN1,> 100 µM,> 100 µM,> 100 µM,> 100 µM,> 100 µM,–,> 100 µM,–
Cn1cc(NC(=O)c2cc(NC(=O)CCCCCCCCCCC(=O)Nc3cc(C(=O)Nc4cc(C(=O)NCCC(=N)N)n(C)c4)n(C)c3)cn2C)cc1C(=O)NCCC(=N)N,> 100 µM,–,–,> 100 µM,> 100 µM,> 100 µM,> 100 µM,–
CSC1=NC=CCN1C,> 100 µM,> 100 µM,> 100 µM,> 100 µM,> 100 µM,–,> 100 µM,–
Clc1ccccc1C(c1ccccc1)(c1ccccc1)n1ccnc1,–,–,–,–,–,–,–,TGI (MDA-N): 32.1 µM
CCCCCCCCCCCCCCCC(=O)NCC(COP(=O)([O-])OCC[N+](C)(C)C)OCC (configuration not stated),4.53 µM,16.2 µM,29.8 µM,16.9 µM,5 µM,29.6 µM,13.7 µM,–
C1COCCN1.C1COCCN1.N.N.[Cl-].[Pt+2],> 100 µM,–,–,> 100 µM,> 100 µM,> 100 µM,> 100 µM,GI50 (HOP-18 NSCLC): > 100 µM; GI50 (KM20L2 colon): > 100 µM; GI50 (DLD-1 colon): > 100 µM; GI50 (DMS 273 small cell lung): > 100 µM; GI50 (SNB-78 CNS): > 100 µM
CCCCCCCCCCCCC(=O)OC(c1cnco1)c1nc(C(O)CC(O)C(O)C(C)O)co1 (configuration not stated),> 100 µM,> 52.7 µM,3.96 µM,> 100 µM,> 38.6 µM,–,> 48.2 µM,–
N#CC1(c2nc3ccccc3o2)C(=O)C(=O)N(C2C3CC4CC(C3)CC2C4)C(=O)C1=O (configuration not stated),> 100 µM,> 100 µM,> 100 µM,–,> 100 µM,> 100 µM,> 100 µM,–
Cc1cc2c(cc1C)[n+](=O)c(C(=O)C/C(=N/NC(=O)c1ccccc1O)C(=O)Nc1ccccc1C(C)C)c(C)n2[O-],> 100 µM,> 100 µM,> 100 µM,> 100 µM,> 100 µM,> 100 µM,> 100 µM,TGI (RXF-631 renal): > 100 µM
FC(F)(F)c1nc(-c2ccccc2Cl)[nH]c1C(F)(F)F,2.6 µM,3.77 µM,1.9 µM,> 29.5 µM,3.03 µM,> 29.5 µM,3.44 µM,–
C#CCNC(=O)NC(CCCNC(=O)OCc1ccccc1)C(=O)OCc1ccccc1 (configuration not stated),–,> 100 µM,> 100 µM,> 100 µM,> 100 µM,> 100 µM,> 100 µM,TGI (RXF-631 renal): > 100 µM
COC(=O)C(=O)CC(=O)CCn1ncc(Cl)c(Cl)c1=O,–,15.3 µM,8.69 µM,24.9 µM,30.3 µM,50.8 µM,33.4 µM,TGI (RXF-631 renal): 23.6 µM
COc1ccc2cc1Oc1ccc(cc1)C[C@H]1c3cc(c(OC)cc3CCN1C)Oc1c(OC)c(OC)cc3c1[C@H](C2)N(C)CC3,20.3 µM,–,15.3 µM,20.5 µM,13.2 µM,21.1 µM,10.7 µM,TGI (P388 leukemia): 9.38 µM; TGI (SN12K1 renal): 14 µM; TGI (P388/ADR leukemia): 14.9 µM
CCOc1ccc(NC(=O)CC2Sc3ccccc3NC2=O)cc1 (configuration not stated),54 µM,> 100 µM,> 100 µM,> 100 µM,> 100 µM,> 100 µM,> 100 µM,–
CC(CO)(CO)N=Cc1cc(I)cc(I)c1O,–,–,–,–,–,–,–,TGI (MDA-N): 64.2 µM
CC(=O)[CH-]C(=O)c1ccccc1.CC(=O)[CH-]C(=O)c1ccccc1.CCCCCCCCCCCCCCCCCC(=O)[O-].CCCCCCCCCCCCCCCCCC(=O)[O-].[Ti+4],–,97.9 µM,–,> 100 µM,38.7 µM,–,> 100 µM,GI50 (KM20L2 colon): 33.9 µM; GI50 (M19-MEL melanoma): 27.6 µM; GI50 (DLD-1 colon): 31.7 µM; GI50 (DMS 273 small cell lung): 20.1 µM
COC(=O)C(c1[nH]nc2ccccc12)C(C(=O)OC)c1[nH]nc2ccccc12 (configuration not stated),> 100 µM,> 100 µM,83.8 µM,> 100 µM,–,> 100 µM,> 100 µM,TGI (RXF-631 renal): > 100 µM
N/C(CC(=O)Nc1cc(C(F)(F)F)ccc1Cl)=N\O,–,–,–,–,–,–,–,TGI (MDA-N): > 100 µM
O=C(C#Cc1c[nH]c(=O)[nH]c1=O)c1ccccc1Cl,34.4 µM,–,46.9 µM,29.3 µM,38.8 µM,60.7 µM,–,–
CCOC(=O)C1(CC)CCCCC(=O)N1 (configuration not stated),> 100 µM,> 100 µM,> 100 µM,> 100 µM,> 100 µM,> 100 µM,> 100 µM,–
NC(CO)Cc1cnc[nH]1 (configuration not stated),–,–,–,–,–,–,–,GI50 (MDA-N): > 100 µM; TGI (MDA-N): > 100 µM
